Experimental data reported in patent US10106515B2, “1-(cyclopent-2-en-1-yl)-3-(2-hydroxy-3-(arylsulfonyl)phenyl)urea derivatives as CXCR2 inhibitors” (GLAXOSMITHKLINE INTELLECTUAL PROPERTY DEVELOPMENT LIMITED, priority 2014, dated 2018).
Structures can show the parent of a compound that is named as a salt.

Legend:
recombinant human CXCR2 = molecular target: T1, recombinant human CXCR2 (Homo sapiens, UniProt P25025); test: CXCR2 Tango assay; format: cell-based; conditions: mean pIC50 of multiple test results; stimulated with 80 nM hCXCL1; reporter gene blue/green emission ratio; read-out: pIC50 (CXCR2 Tango assay) (converted)
T1 construct: TEV protease site; Gal4-VP16 transcription factor
T1 sequence (P25025 1-360): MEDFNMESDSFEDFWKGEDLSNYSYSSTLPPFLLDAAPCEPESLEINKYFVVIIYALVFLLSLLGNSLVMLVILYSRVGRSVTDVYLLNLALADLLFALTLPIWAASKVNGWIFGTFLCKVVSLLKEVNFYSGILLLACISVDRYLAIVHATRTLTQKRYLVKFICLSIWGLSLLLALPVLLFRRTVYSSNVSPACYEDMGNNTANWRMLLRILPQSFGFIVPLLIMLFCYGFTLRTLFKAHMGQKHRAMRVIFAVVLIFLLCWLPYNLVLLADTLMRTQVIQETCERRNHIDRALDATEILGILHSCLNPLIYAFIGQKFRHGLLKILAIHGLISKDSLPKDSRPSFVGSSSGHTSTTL
How it was run: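 Mean pIC50 comes from sigmoidal fits of the blue/green (460/530 nm) CCF4-AM ratio, normalized between hCXCL1-stimulated and DMSO controls. Compounds in 10-point dose response were incubated overnight at 37 °C with recombinant human CXCR2 Tango cells (~10,000/well) and 80 nM hCXCL1, with reporter read-out via arrestin-TEV release of Gal4-VP16.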

[1] = test system: upregulation of CD11b in GROα stimulated neutrophils in human whole blood; test: Human whole blood assay (CD11b upregulation); format: cell-based; conditions: Neutrophil, inhibition of CD11b upregulation, GROα 33 nM final, flow cytometry, read-out: pIC50 (human whole blood assay) (converted)
Procedure: The whole blood assay tested the compounds' ability to inhibit the upregulation of CD11b in GROα stimulated neutrophils in human whole blood.
Blood was withdrawn by venipuncture from consented adults and poured into a Sterilin tube containing an anti-coagulant Heparin (10 uL/mL of blood). All the test compounds were dissolved in DMSO to 4 mM and serial diluted across the plate, 1 in 3 to provide 10 point dose response curves. The compounds were then diluted 100 fold in -PBS [Phosphate buffered saline (without Calcium Chloride and Magnesium Chloride)] after which, 1 uL was dispensed in 96 U bottom Costar plates using an FX.
10 uL of blood was transferred to the compound plate using a multi-channel pipette, gently tapped and incubated for 15 minutes, at 37° C. After 15 minutes, the stimulant GROα was diluted to 100 nM in 0.1% BSA (Albumin Bovine Serum)-PBS and 5 uL is dispensed across the whole plate for a final concentration of 33 nM. The plate was gently tapped and incubated further for 15 minutes at 37° C. The plate was placed on ice for 1 minute before addition of 10 uL of an antibody cocktail consisting of CD11b-FITC (40 ug/mL) purchased from BioLegend (address: Cambridge Bioscience, Munro House, Trafalgar Way, Bar Hill, Cambridge, UK) and CD16-PE purchased from BD Pharmingen (address: The Danby Building, Edmung Halley Road, Oxford Science Park, Oxford, UK) (stock concentration 100 tests, 2 mL stock volume is diluted 1 in 5). The plate was placed on ice for 1 hour in the dark. The cells were then fixed using 200 uL/well of 1×FACS (Flow Activated Cell Sorting) Lyse solution (Becton and Dickinson-BD) and on ice for 20 minutes in the dark. The plate was centrifuged at 1600 rpm for 5 minutes and re-suspended with 200 uL of ice cold PBS. This step was repeated twice and on the final step the plate was re-suspended with 50 uL of ice cold -PBS for flow Cytometric analysis.
Samples were run on a Becton and Dickinson (BD)-Acurri C6 Flow Cytometer using a HyperCyt sampling apparatus (IntelliCyt) with a flow rate 2 uL/sec. CD11b upregulation is monitored in neutrophils and identified using a combination of both side scatter and CD16 expression.

SMILES | IC50 (recombinant human CXCR2) | IC50 [1]
CC(C)(C)S(=O)(=O)c1c(C#N)ccc(NC(=O)N[C@@H]2CCC=C2Cl)c1O [Compound 94, (R)-1-(3-(tert-butylsulfonyl)-4-cyano-2-hydroxyphenyl)-3-(2-chlorocyclopent-2-en-1-yl)urea] | ≤ 1 nM | 25.1 to 2510 nM
CC1=CCC[C@H]1NC(=O)Nc1ccc(Cl)c(S(=O)(=O)C(C)(F)F)c1O [Compound 194, (R)-1-(4-chloro-3-((1,1-difluoroethyl)sulfonyl)-2-hydroxyphenyl)-3-(2-methylcyclopent-2-en-1-yl)urea] | ≤ 1 nM | 25.1 to 2510 nM
CC1=CCC[C@H]1NC(=O)Nc1ccc(Cl)c(S(=O)(=O)C2(C)CCOCC2)c1O [Compound 69, (R)-1-(4-chloro-2-hydroxy-3-((4-methyltetrahydro-2H-pyran-4-yl)sulfonyl)phenyl)-3-(2-methylcyclopent-2-en-1-yl)urea] | ≤ 1 nM | 25.1 to 2510 nM
[2H]C([2H])([2H])C1(S(=O)(=O)c2c(Cl)ccc(NC(=O)N[C@@H]3CCC=C3C)c2O)CCOCC1 [Compound 70] | ≤ 1 nM | 25.1 to 2510 nM
CC1=CCC[C@H]1NC(=O)Nc1ccc(Cl)c(S(=O)(=O)N2CCN3CCC[C@@]3(C)C2)c1O [Compound 93, 1-(4-chloro-2-hydroxy-3-(((S)-8a-methylhexahydro-pyrrolo[1,2-a]pyrazin-2(1H)-yl)sulfonyl)phenyl)-3-((R)-2-methylcyclopent-2-en-1-yl)urea, trifluoroacetic acid salt] | ≤ 10 nM | 25.1 to 2510 nM
CO[C@H]1COC[C@@H]1S(=O)(=O)c1c(Cl)ccc(NC(=O)N[C@@H]2CCC=C2C)c1O [Compound 151, 1-(4-chloro-2-hydroxy-3-(((3S,4S)-4-methoxytetrahydro-furan-3-yl)sulfonyl)phenyl)-3-((R)-2-methylcyclopent-2-en-1-yl)urea] | ≤ 10 nM | 25.1 to 2510 nM
